Results reported in paper PMC5802278, “Molecular and cellular mechanisms of HIF prolyl hydroxylase inhibitors in clinical trials” (Chemical Science, 2017).
Where two headings read alike, the source gives them in different places.

How the values were obtained:
PHD3 = PHD3 (Homo sapiens, UniProt Q9H6Z9); experiment: MALDI-TOF MS PHD hydroxylation assay; type: biochemical
Procedure: (§1) Protocols for in vitro PHD1–3 MALDI-TOF MS hydroxylation assays[30] and for the AlphaScreen histone demethylase assays[44] were as reported.
(§2) Although sharing homologous C-terminal catalytic domains, the N-terminal regions of PHD1–3 vary. […] In vitro inhibition assays of the clinical trial PHD inhibitors (and some of their structurally related analogue) against 1 μM recombinant human PHD1–3 were performed.
(§3) Fig. S11. In vitro PHD isoform selectivity profiling of PHD inhibitors. Inhibition of PHD inhibitors against human PHD125 -3 as assayed by MALDI-TOF MS (the protocol is described in Chan et al. ). Eight concentrations were used to obtained dose-response curve for each compound. Data points presented in the graph are mean with standard deviation, n=3. IC50 values (listed in Supplemental Table S3) were calculated using GraphPad Prism® 5.04.
(§4) (1 picture or pasted object on this page, not shown here)

PHD1 = PHD1 (Homo sapiens, UniProt Q96KS0); experiment: MALDI-TOF MS PHD hydroxylation assay; type: biochemical
Chain of PHD1 (Q96KS0 whole entry): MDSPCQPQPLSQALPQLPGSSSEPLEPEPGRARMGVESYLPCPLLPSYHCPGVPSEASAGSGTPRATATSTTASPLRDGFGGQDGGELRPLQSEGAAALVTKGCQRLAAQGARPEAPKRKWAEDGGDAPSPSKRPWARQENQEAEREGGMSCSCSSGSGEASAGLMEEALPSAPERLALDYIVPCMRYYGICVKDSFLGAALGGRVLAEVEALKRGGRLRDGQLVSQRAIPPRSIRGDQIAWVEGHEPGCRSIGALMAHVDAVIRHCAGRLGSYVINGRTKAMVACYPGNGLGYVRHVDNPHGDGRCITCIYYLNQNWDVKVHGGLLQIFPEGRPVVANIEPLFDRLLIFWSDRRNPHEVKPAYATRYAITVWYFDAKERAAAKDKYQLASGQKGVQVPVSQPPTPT
Procedure: as §1, §2, §3, §4

[1] = test system: HIF-1α Pro402 (NODD), Pro564 (CODD) and Asn803 hydroxylation in RCC4 cells; experiment: Immunoblotting of HIF-1α hydroxylation in VHL-deficient RCC4 cells; type: cell-based, human; conditions: 6 hours; for comparison of inhibition of NODD and CODD hydroxylation: RCC4 cells, 10, 50 and 100 μM; for inhibition of HIF-1α NODD and CODD hydroxylation: titration
Procedure: To test whether the cellular HIF-α induction occurs via inhibition of HIF-α hydroxylation, we utilized a Von Hippel–Lindau (VHL)-deficient renal cell carcinoma cell line RCC4, in which HIF-α is constitutively stabilized in normoxia due to loss of functional VHL.[77] We used antibodies specific for hydroxylation at the N-terminal and C-terminal oxygen-dependent degradation domains, Pro402 (NODD) and Pro564 (CODD) at HIF-1α.[78] HIF-1α hydroxylation status was analyzed after 6 hours treatment. […]. page 15: […]
Cell Culture and Immunoblotting
HeLa and RCC4 cells were cultured in Dulbecco’s Modified Eagle’s Medium (DMEM; Sigma Aldrich D6546-500ML) supplemented with 10% fetal bovine serum (Sigma Aldrich F7524-500ML), 4 mM L-glutamine (Sigma Aldrich G7513- 100ML), 50 U/mL penicillin, and 50 μg/mL streptomycin (Sigma Aldrich P0781-100ML). Cells were seeded to reach 90-100% confluency prior to compound treatment. Cells were exposed to the inhibitor at a final concentration of 1% DMSO for 5-6 hours. For Fe(II) titration in the presence of inhibitors, ferric ammonium citrate was added to the cells for further 16 hours after 6 hours of incubation […]
Cells were harvested in urea/SDS buffer (6.7 M urea, 10 mM Tris-Cl pH 6.8, 10% glycerol, and1% SDS) supplemented with 1mM dithiothreitol following a phosphate-buffered saline (PBS) rinse. Cell extracts were analyzed with SDS-PAGE, electroblotted to polyvinylidene difluoride (PVDF) membrane (Millipore) and probed with the corresponding primary antibody for 1 hour at room temperature or overnight at 4 °C. The secondary antibody specific to primary antibody species conjugated with HRP were applied at room temperature for 1 hour.
The antibodies used for immonoblotting were as follows: pan-anti-HIF-1α (clone 54, BD Transduction Laboratories™), anti-HIF-1α Hyp402 (catalogue number 07-1585, Merck Millipore), anti-HIF-1α Hyp564 (D43B5, Cell Signaling), anti-HIF-1α HyN803 (a generous gift from Lee et al.15), PHD216, PHD316, and HRP-conjugated anti-β-actin (clone AC15, Abcam). Details of antibodies used are given in Tian et al.17 Detection of signal was achieved using SuperSignal™ West Dura Extended Duration Substrate kTM it (Thermo Scientific 34075, unless otherwise stated) either with film or ChemiDoc MP (BIO-RAD) imaging system. TM Quantification of the immunobloting signal was performed with Image Lab software from […]

JARID1C (KDM5C) = JARID1C (KDM5C) (Homo sapiens, UniProt P41229); experiment: AlphaScreen histone demethylase assay; type: biochemical
Chain of JARID1C (KDM5C) (P41229 whole entry): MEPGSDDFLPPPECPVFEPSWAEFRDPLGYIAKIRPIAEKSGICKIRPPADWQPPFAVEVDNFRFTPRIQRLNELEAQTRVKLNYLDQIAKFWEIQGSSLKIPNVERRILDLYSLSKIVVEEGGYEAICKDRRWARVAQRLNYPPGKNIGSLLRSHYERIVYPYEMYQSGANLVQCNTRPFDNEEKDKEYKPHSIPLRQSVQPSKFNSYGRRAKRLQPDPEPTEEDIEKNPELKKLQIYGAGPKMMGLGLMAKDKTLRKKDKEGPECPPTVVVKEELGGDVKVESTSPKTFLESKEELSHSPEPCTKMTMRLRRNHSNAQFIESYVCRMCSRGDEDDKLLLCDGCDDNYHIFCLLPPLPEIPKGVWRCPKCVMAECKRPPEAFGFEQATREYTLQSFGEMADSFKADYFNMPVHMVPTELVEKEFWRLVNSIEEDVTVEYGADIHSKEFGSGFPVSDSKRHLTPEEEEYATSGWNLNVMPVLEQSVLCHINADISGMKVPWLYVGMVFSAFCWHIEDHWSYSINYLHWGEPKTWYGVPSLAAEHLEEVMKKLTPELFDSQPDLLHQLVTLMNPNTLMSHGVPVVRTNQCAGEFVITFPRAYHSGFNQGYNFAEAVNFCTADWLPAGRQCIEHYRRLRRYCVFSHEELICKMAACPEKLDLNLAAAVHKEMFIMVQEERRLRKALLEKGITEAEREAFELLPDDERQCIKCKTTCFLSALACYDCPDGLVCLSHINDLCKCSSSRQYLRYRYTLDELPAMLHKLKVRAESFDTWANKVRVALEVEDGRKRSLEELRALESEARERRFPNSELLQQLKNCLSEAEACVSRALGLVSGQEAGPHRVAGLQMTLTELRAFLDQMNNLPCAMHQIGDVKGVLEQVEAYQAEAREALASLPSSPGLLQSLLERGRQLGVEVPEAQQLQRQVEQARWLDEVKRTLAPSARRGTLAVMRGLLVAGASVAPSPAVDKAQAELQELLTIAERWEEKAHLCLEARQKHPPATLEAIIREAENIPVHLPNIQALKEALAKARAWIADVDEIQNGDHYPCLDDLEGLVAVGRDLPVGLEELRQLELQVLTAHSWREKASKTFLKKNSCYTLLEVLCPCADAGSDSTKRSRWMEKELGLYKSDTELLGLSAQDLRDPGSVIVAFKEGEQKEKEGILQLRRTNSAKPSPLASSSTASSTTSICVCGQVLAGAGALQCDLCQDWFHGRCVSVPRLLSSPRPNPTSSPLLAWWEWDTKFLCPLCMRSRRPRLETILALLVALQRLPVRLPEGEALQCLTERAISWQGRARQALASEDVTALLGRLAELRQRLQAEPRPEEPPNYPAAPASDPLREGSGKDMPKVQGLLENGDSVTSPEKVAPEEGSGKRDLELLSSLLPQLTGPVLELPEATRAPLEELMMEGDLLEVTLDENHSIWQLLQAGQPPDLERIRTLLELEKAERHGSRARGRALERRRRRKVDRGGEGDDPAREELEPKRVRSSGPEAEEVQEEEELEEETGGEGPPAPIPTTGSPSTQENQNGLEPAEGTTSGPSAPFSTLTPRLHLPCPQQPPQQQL

JMJD3 (KDM6B) = JMJD3 (KDM6B) (Homo sapiens, UniProt O15054); experiment: AlphaScreen histone demethylase assay; type: biochemical
Chain of JMJD3 (KDM6B) (O15054 whole entry): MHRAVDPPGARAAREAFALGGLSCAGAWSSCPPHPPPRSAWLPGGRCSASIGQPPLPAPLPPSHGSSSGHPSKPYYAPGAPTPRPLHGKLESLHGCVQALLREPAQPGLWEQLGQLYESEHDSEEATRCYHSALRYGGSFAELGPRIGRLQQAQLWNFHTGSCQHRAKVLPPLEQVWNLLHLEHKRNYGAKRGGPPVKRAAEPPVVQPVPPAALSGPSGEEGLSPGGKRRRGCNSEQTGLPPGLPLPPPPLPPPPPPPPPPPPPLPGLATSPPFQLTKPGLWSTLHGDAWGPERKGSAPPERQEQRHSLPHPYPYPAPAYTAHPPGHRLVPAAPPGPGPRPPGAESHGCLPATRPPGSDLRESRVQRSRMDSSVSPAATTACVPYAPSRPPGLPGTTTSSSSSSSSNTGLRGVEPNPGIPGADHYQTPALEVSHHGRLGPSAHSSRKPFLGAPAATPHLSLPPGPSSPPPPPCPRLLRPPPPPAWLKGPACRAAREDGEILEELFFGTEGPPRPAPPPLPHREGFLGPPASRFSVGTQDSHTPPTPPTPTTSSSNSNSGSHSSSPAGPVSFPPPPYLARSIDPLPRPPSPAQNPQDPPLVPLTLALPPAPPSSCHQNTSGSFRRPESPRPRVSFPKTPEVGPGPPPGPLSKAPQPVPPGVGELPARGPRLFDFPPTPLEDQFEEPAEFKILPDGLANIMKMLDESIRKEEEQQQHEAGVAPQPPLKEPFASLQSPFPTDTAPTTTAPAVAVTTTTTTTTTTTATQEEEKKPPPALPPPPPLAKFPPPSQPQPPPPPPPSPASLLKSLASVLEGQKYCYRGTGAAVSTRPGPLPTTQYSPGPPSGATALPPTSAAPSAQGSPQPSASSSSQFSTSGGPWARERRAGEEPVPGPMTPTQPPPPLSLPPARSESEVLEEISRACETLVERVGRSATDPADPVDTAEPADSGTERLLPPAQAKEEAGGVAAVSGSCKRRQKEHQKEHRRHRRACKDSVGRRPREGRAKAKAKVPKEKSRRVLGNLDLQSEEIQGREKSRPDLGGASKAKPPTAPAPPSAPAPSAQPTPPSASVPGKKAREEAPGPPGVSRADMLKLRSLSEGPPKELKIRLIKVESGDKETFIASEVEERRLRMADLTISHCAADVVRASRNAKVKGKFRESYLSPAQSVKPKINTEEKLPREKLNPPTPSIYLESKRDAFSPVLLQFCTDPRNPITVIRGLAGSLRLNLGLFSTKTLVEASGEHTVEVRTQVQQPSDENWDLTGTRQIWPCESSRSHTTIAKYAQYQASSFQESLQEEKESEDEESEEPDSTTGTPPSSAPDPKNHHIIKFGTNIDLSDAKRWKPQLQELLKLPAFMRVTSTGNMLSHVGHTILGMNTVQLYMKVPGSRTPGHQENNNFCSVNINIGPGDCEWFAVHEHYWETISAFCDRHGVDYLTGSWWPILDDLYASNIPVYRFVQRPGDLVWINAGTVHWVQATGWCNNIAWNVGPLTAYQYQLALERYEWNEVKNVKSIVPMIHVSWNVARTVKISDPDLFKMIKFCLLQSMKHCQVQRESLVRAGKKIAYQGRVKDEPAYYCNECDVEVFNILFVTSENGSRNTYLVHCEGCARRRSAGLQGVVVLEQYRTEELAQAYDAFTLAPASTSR
From the text: as §1

PHD2 = PHD2 (Homo sapiens, UniProt Q9GZT9); experiment: MALDI-TOF MS PHD hydroxylation assay; type: biochemical; conditions: 1μM isolated recombinant human PHD2, MALDI-TOF MS
Chain of PHD2 (Q9GZT9 whole entry): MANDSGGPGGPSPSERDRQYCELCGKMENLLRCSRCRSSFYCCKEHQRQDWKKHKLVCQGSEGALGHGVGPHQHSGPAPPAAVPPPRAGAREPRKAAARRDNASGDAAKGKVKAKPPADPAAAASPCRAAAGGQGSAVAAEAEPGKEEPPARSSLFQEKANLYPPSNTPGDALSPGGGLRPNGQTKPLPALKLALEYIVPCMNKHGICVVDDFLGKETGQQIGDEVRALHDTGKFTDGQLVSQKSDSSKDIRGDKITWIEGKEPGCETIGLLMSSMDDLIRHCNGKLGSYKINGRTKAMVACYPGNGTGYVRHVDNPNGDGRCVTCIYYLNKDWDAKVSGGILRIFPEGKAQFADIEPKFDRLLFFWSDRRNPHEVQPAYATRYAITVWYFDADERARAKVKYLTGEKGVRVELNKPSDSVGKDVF
Procedure: as §1, §2
as §3, with “values (listed in Supplemental Table S3) were calculated using GraphPad Prism® 5.04.” left out
as §4

[2] = 1μM isolated recombinant human PHD3, MALDI-TOF MS, read-out: IC50 PHD3
[3] = 1μM isolated recombinant human PHD1, MALDI-TOF MS, read-out: IC50 PHD1

Chain of PHD3 (Q9H6Z9 whole entry): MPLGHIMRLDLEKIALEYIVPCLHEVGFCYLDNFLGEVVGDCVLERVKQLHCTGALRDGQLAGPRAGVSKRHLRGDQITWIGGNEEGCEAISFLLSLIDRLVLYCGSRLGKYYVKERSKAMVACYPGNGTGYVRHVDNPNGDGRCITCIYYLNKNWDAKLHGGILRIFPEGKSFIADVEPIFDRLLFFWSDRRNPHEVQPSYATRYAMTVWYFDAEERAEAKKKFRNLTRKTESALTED

Compound | IC50 (PHD3) | IC50 (PHD1) | comparison of inhibition of NODD and CODD hydroxylation [1] | inhibition of HIF-1α NODD and CODD hydroxylation ([1]; RCC4 cells) | inhibition of HIF-1α Asn803 hydroxylation ([1]; RCC4 cells, up to 100 μM) | IC50 (JARID1C (KDM5C)) | IC50 (JMJD3 (KDM6B)) | IC50 (PHD2) | IC50 (PHD3; [2]) | IC50 (PHD1; [3]) | IC50 (JARID1C (KDM5C); read-out: IC50 JARID1C (KDM5C)) | IC50 (JMJD3 (KDM6B); read-out: IC50 JMJD3 (KDM6B)) | inhibition of NODD hydroxylation ([1]; RCC4 cells, 50 μM) | inhibition of NODD hydroxylation ([1]; RCC4 cells, 100 μM) | inhibition of CODD hydroxylation ([1]; RCC4 cells, up to 100 μM) | inhibition of hydroxylation of Asn803 ([1]; RCC4 cells, up to 200 μM) | inhibition of CODD hydroxylation ([1]; RCC4 cells, 50 μM)
O=C(O)CNC(=O)C1C(=O)N(C2CCCCC2)C(=O)N(C2CCCCC2)C1=O [GSK1278863] | 0.61 µM | 1.5 µM | better inhibits NODD than CODD hydroxylation | inhibited both NODD and CODD hydroxylation in a dose dependent manner | no sign of HIF-1α Asn803 hydroxylation inhibition | > 100 µM | > 100 µM |  |  |  |  |  |  |  |  |  | 
O=c1c(-n2ccnn2)c[nH]n1-c1cc(N2CCOCC2)ncn1 [Molidustat] |  |  | weaker inhibition of both hydroxylation sites compared to FG-4592 and GSK1278863 at 10 μM | inhibited both NODD and CODD hydroxylation in a dose dependent manner | no sign of HIF-1α Asn803 hydroxylation inhibition |  |  | 1.85 µM | 0.72 µM | 1.45 µM | > 100 µM | 35 µM |  |  |  |  | 
CC(C)(C)OC(=O)c1ccc(-n2[nH]cc(-n3ccnn3)c2=O)nc1 [IOX4] |  |  |  | inhibited both NODD and CODD hydroxylation in a dose dependent manner |  |  |  | 0.94 µM | 0.69 µM | 0.55 µM | 97 µM | < 1 µM |  |  |  |  | 
O=C(O)CNC(=O)c1ncc(-c2cccc(Cl)c2)cc1O [Vadadustat] |  |  |  |  |  |  |  |  | 0.26 µM | 0.84 µM | > 100 µM | 37 µM | no sign of PHD inhibition | only slight inhibition | no clear inhibition | not observed | 
Cc1nc(C(=O)NCC(=O)O)c(O)c2ccc(Oc3ccccc3)cc12 [FG-4592] |  |  | greatest inhibition of CODD hydroxylation among the inhibitors | inhibited both NODD and CODD hydroxylation in a dose dependent manner | no sign of HIF-1α Asn803 hydroxylation inhibition |  |  |  | 1.32 µM | 1.4 µM | > 100 µM | > 100 µM | significantly inhibited |  |  |  | clear inhibition
